In patent US11339419B2, “Scavenger protein(s) for improved preservation of analyte detection sensor(s) and method(s) of use thereof” (Siemens Healthcare Diagnostics Inc., priority 2017, dated 2022):
Where “and” joins values, the source holds several entries; their conditions need not be identical. Equal entries are not always repeated.

Experiments:
[1] = system: sarcosine oxidase (Toyobo); assay: Toyobo Sarcosine Oxidase Enzyme Absorbance with BSA and Proclin 300; assay type: biochemical
Excerpt: Absorbance measurements of the sarcosine oxidase enzyme(s) were taken via spectrophotometer for each aqueous solution (represented as columns 1-5 in Tables 1-4—column 6 is a blank), the absorbance being directly proportional to the enzyme activity being measured-which for Tables 1-4 is sarcosine oxidase enzyme activity. Accordingly, the higher the absorbance measurement, the higher the enzyme activity of sarcosine oxidase. […] In addition, the mean values, standard deviations, and coefficients of variation are also presented for the enzyme activity/absorbance of each aqueous solution. All measurements were taken at 37° C.

[2] = system: creatininase (BBI Solutions); assay: BBI Solutions Creatininase Enzyme Absorbance with BSA and MIT; assay type: biochemical
Method: Table 5-8 depict aqueous solutions comprising varying concentrations of BSA (at concentrations of 0 mg/mL, 5 mg/mL, 25 mg/mL, and 50 mg/mL), varying concentrations of MIT (at concentrations of 50 parts per million and 100 parts per million) or Proclin™ 300 (at concentrations of 0.7% and 1.4%) biocide over a particular time period (measurements were taken at days 0, 4, and 14 after exposure of the enzyme(s) to the particular aqueous solutions) and the associated enzyme absorbance measurements for creatininase (commercially offered for sale by BBI Solutions and Toyobo). Absorbance measurements of the creatininase enzyme(s) were taken via spectrophotometer for each aqueous solution (represented as columns 1-5 in Tables 5-8—column 6 is a blank), the absorbance being directly proportional to the enzyme activity being measured-which for Tables 5-8 is creatininase enzyme activity. Accordingly, the higher the absorbance measurement, the higher the enzyme activity of creatininase. Columns 7-11 represent five replicate readings in which the solution only contains BSA (i.e., there is no biocide(s) present in the solution). In addition, the mean values, standard deviations, and coefficients of variation are all presented for the enzyme activity/absorbance of each aqueous solution. All measurements were taken at 37° C.
As depicted in Table 5, creatininase (commercially offered for sale by BBI Solutions) enzyme activity is measured against various concentrations of MIT (biocide) and BSA (scavenger protein) over a period of 14 days (with absorbance measurement taken at 0, 4, and 14 days) for five different aqueous solutions (represented as columns 1-5—column 6 is a blank).

[3] = Day 0, BSA 5 mg/mL only, no Proclin 300, line of 0.7% Proclin 300
[4] = Day 0, BSA 5 mg/mL only, no Proclin 300, line of 1.4% Proclin 300
[5] = Day 0, BSA 25 mg/mL only, no Proclin 300, line of 0.7% Proclin 300
[6] = Day 0, BSA 25 mg/mL only, no Proclin 300, line of 1.4% Proclin 300
[7] = Day 0, BSA 50 mg/mL only, no Proclin 300, line of 0.7% Proclin 300
[8] = Day 0, BSA 50 mg/mL only, no Proclin 300, line of 1.4% Proclin 300
[9] = Day 0, 5 mg/mL BSA, no MIT (row of 50 ppm MIT)
[10] = Day 0, 5 mg/mL BSA, no MIT (row of 100 ppm MIT)
[11] = Day 0, 25 mg/mL BSA, no MIT (row of 50 ppm MIT)
[12] = Day 0, 25 mg/mL BSA, no MIT (row of 100 ppm MIT)
[13] = Day 0, 50 mg/mL BSA, no MIT (row of 50 ppm MIT)
[14] = Day 0, 50 mg/mL BSA, no MIT (row of 100 ppm MIT)
[15] = Day 0, 50 ppm MIT, 25 mg/mL BSA
[16] = Day 0, 50 ppm MIT, 50 mg/mL BSA
[17] = Day 4, 5 mg/mL BSA, no MIT (row of 50 ppm MIT)
[18] = Day 4, 5 mg/mL BSA, no MIT (row of 100 ppm MIT)
[19] = Day 4, 25 mg/mL BSA, no MIT (row of 50 ppm MIT)
[20] = Day 4, 25 mg/mL BSA, no MIT (row of 100 ppm MIT)
[21] = Day 4, 50 mg/mL BSA, no MIT (row of 50 ppm MIT)
[22] = Day 4, 50 mg/mL BSA, no MIT (row of 100 ppm MIT)
[23] = Day 14, 5 mg/mL BSA, no MIT (row of 50 ppm MIT)
[24] = Day 14, 5 mg/mL BSA, no MIT (row of 100 ppm MIT)
[25] = Day 14, 25 mg/mL BSA, no MIT (row of 50 ppm MIT)
[26] = Day 14, 25 mg/mL BSA, no MIT (row of 100 ppm MIT)
[27] = Day 14, 50 mg/mL BSA, no MIT (row of 50 ppm MIT)
[28] = Day 14, 50 mg/mL BSA, no MIT (row of 100 ppm MIT)

Absorbance, solutions 7-11 [1, 3]: 1.419
MEAN absorbance, solutions 7-11 [1, 3]: 1.39
Absorbance, solutions 7-11 [1, 4]: 1.397 and 1.427 and 1.404
MEAN absorbance, solutions 7-11 [1, 4]: 1.35
Absorbance, solutions 7-11 [1, 5]: 1.443
MEAN absorbance, solutions 7-11 [1, 5]: 1.40
Absorbance, solutions 7-11 [1, 6]: 1.403 and 1.426 and 1.429 and 1.44
MEAN absorbance, solutions 7-11 [1, 6]: 1.37
Absorbance, solutions 7-11 [1, 7]: 1.418
MEAN absorbance, solutions 7-11 [1, 7]: 1.39
Absorbance, solutions 7-11 [1, 8]: 1.409 and 1.41 and 1.444
MEAN absorbance, solutions 7-11 [1, 8]: 1.37
MEAN absorbance, solutions 7-11 ([1]; Day 4, BSA 5 mg/mL only, no Proclin 300, line of 0.7% Proclin 300): 0.81
MEAN absorbance, solutions 7-11 ([1]; Day 4, BSA 5 mg/mL only, no Proclin 300, line of 1.4% Proclin 300): 0.86
MEAN absorbance, solutions 7-11 ([1]; Day 4, BSA 25 mg/mL only, no Proclin 300, line of 0.7% Proclin 300): 1.30
MEAN absorbance, solutions 7-11 ([1]; Day 4, BSA 25 mg/mL only, no Proclin 300, line of 1.4% Proclin 300): 1.32
MEAN absorbance, solutions 7-11 ([1]; Day 4, BSA 50 mg/mL only, no Proclin 300, line of 0.7% Proclin 300): 1.31
MEAN absorbance, solutions 7-11 ([1]; Day 4, BSA 50 mg/mL only, no Proclin 300, line of 1.4% Proclin 300): 1.32
MEAN absorbance, solutions 7-11 ([1]; Day 14, BSA 5 mg/mL only, no Proclin 300, line of 0.7% Proclin 300): 0.25
MEAN absorbance, solutions 7-11 ([1]; Day 14, BSA 5 mg/mL only, no Proclin 300, line of 1.4% Proclin 300): 0.29
MEAN absorbance, solutions 7-11 ([1]; Day 14, BSA 25 mg/mL only, no Proclin 300, line of 0.7% Proclin 300): 1.34
MEAN absorbance, solutions 7-11 ([1]; Day 14, BSA 25 mg/mL only, no Proclin 300, line of 1.4% Proclin 300): 1.34
MEAN absorbance, solutions 7-11 ([1]; Day 14, BSA 50 mg/mL only, no Proclin 300, line of 1.4% Proclin 300): 1.39
absorbance of the sarcosine oxidase enzyme compared to samples containing 0 mg/mL of BSA ([1]; days 4 and 14, 5, 25 and 50 mg/mL BSA, with Proclin 300): increased absorbance
sarcosine oxidase absorbance, solutions 7-11 ([1]; days 4 and 14, only BSA, no Proclin 300): increased (or at least maintained)
Creatininase Enzyme Absorbance, columns 7-11 [2, 9]: 0.717 and 0.707 and 0.75 and 0.728
MEAN (columns 7-11) [2, 9]: 0.51
MEAN (columns 7-11) [2, 10]: 0.56
MEAN (columns 7-11) [2, 11]: 0.52
MEAN (columns 7-11) [2, 12]: 0.50
MEAN (columns 7-11) [2, 13]: 0.54
MEAN (columns 7-11) [2, 14]: 0.48
% Bias ([2]; Day 0, 50 ppm MIT vs no MIT, 5 mg/mL BSA): 6.0%
% Bias ([2]; Day 0, 50 ppm MIT vs no MIT, 25 mg/mL BSA): 4.8%
% Bias ([2]; Day 0, 50 ppm MIT vs no MIT, 50 mg/mL BSA): 3.6%
MEAN ([2]; Day 0, 50 ppm MIT, 5 mg/mL BSA): 0.54
Creatininase Enzyme Absorbance [2, 15]: 0.751 and 0.713 and 0.818 and 0.733
MEAN [2, 15]: 0.54
Creatininase Enzyme Absorbance [2, 16]: 0.773
MEAN [2, 16]: 0.56
% Bias ([2]; Day 0, 100 ppm MIT vs no MIT, 5 mg/mL BSA): 6.8%
% Bias ([2]; Day 0, 100 ppm MIT vs no MIT, 25 mg/mL BSA): 8.0%
% Bias ([2]; Day 0, 100 ppm MIT vs no MIT, 50 mg/mL BSA): 3.7%
MEAN ([2]; Day 0, 100 ppm MIT, 5 mg/mL BSA): 0.59
MEAN ([2]; Day 0, 100 ppm MIT, 25 mg/mL BSA): 0.54
MEAN ([2]; Day 0, 100 ppm MIT, 50 mg/mL BSA): 0.49
MEAN (columns 7-11) [2, 17]: 0.71
MEAN (columns 7-11) [2, 18]: 0.69
Creatininase Enzyme Absorbance, columns 7-11 [2, 19]: 0.821 and 0.794 and 0.77 and 0.793
MEAN (columns 7-11) [2, 19]: 0.59
MEAN (columns 7-11) [2, 20]: 0.58
MEAN (columns 7-11) [2, 21]: 0.40
MEAN (columns 7-11) [2, 22]: 0.43
% Bias ([2]; Day 4, 50 ppm MIT vs no MIT, 5 mg/mL BSA): 3.8%
% Bias ([2]; Day 4, 50 ppm MIT vs no MIT, 25 mg/mL BSA): 4.5%
% Bias ([2]; Day 4, 50 ppm MIT vs no MIT, 50 mg/mL BSA): 14.7%
MEAN ([2]; Day 4, 50 ppm MIT, 5 mg/mL BSA): 0.73
MEAN ([2]; Day 4, 50 ppm MIT, 25 mg/mL BSA): 0.61
MEAN ([2]; Day 4, 50 ppm MIT, 50 mg/mL BSA): 0.46
% Bias ([2]; Day 4, 100 ppm MIT vs no MIT, 5 mg/mL BSA): 2.3%
% Bias ([2]; Day 4, 100 ppm MIT vs no MIT, 25 mg/mL BSA): 2.7%
% Bias ([2]; Day 4, 100 ppm MIT vs no MIT, 50 mg/mL BSA): 14.0%
MEAN ([2]; Day 4, 100 ppm MIT, 5 mg/mL BSA): 0.71
MEAN ([2]; Day 4, 100 ppm MIT, 25 mg/mL BSA): 0.60
MEAN ([2]; Day 4, 100 ppm MIT, 50 mg/mL BSA): 0.49
MEAN (columns 7-11) [2, 23]: 0.80
Creatininase Enzyme Absorbance, columns 7-11 [2, 24]: 1.061 and 1.054 and 1.018 and 1.051
MEAN (columns 7-11) [2, 24]: 0.79
MEAN (columns 7-11) [2, 25]: 0.65
MEAN (columns 7-11) [2, 26]: 0.64
MEAN (columns 7-11) [2, 27]: 0.47
Creatininase Enzyme Absorbance, columns 7-11 [2, 28]: 0.74 and 0.737 and 0.713 and 0.724
MEAN (columns 7-11) [2, 28]: 0.47
% Bias ([2]; Day 14, 50 ppm MIT vs no MIT, 5 mg/mL BSA): 1.8%
% Bias ([2]; Day 14, 50 ppm MIT vs no MIT, 25 mg/mL BSA): −0.5%
% Bias ([2]; Day 14, 50 ppm MIT vs no MIT, 50 mg/mL BSA): −2.4%
MEAN ([2]; Day 14, 50 ppm MIT, 5 mg/mL BSA): 0.81
MEAN ([2]; Day 14, 50 ppm MIT, 25 mg/mL BSA): 0.65
MEAN ([2]; Day 14, 50 ppm MIT, 50 mg/mL BSA): 0.46
% Bias ([2]; Day 14, 100 ppm MIT vs no MIT, 5 mg/mL BSA): 0.3%
% Bias ([2]; Day 14, 100 ppm MIT vs no MIT, 25 mg/mL BSA): −1.0%
% Bias ([2]; Day 14, 100 ppm MIT vs no MIT, 50 mg/mL BSA): 0.7%
MEAN ([2]; Day 14, 100 ppm MIT, 5 mg/mL BSA): 0.79
MEAN ([2]; Day 14, 100 ppm MIT, 25 mg/mL BSA): 0.64
MEAN ([2]; Day 14, 100 ppm MIT, 50 mg/mL BSA): 0.47
absorbance of the creatininase enzyme compared to samples containing 0 mg/mL of BSA ([2]; days 4 and 14, 5, 25 and 50 mg/mL BSA, with MIT): increased absorbance
creatininase absorbance, solutions 7-11 ([2]; days 4 and 14, only BSA, no MIT): increased (or at least maintained)
BSA concentration at which the creatininase absorbance measurement is highest ([2]; days 4 and 14, with MIT): 5 mg/mL
Substance: bovine serum albumin [BSA]
Creatininase Enzyme Absorbance, columns 7-11 [2, 10]: 0.767 and 0.759 and 0.781 and 0.761 and 0.773
Creatininase Enzyme Absorbance, columns 7-11 [2, 11]: 0.736 and 0.712 and 0.709 and 0.752 and 0.746
Creatininase Enzyme Absorbance, columns 7-11 [2, 12]: 0.688 and 0.694 and 0.72 and 0.733 and 0.705
Creatininase Enzyme Absorbance, columns 7-11 [2, 13]: 0.759 and 0.723 and 0.742 and 0.773 and 0.777
Creatininase Enzyme Absorbance, columns 7-11 [2, 14]: 0.661 and 0.68 and 0.708 and 0.702 and 0.686
Creatininase Enzyme Absorbance ([2]; Day 0, 50 ppm MIT, 5 mg/mL BSA): 0.774 and 0.737 and 0.726 and 0.733 and 0.74
Creatininase Enzyme Absorbance, columns 7-11 [2, 17]: 0.95 and 0.906 and 0.917 and 0.926 and 0.911
Creatininase Enzyme Absorbance, columns 7-11 [2, 18]: 0.927 and 0.89 and 0.906 and 0.925 and 0.892
Creatininase Enzyme Absorbance, columns 7-11 [2, 20]: 0.793 and 0.779 and 0.783 and 0.8 and 0.814
Creatininase Enzyme Absorbance, columns 7-11 [2, 21]: 0.621 and 0.592 and 0.597 and 0.625 and 0.622
Creatininase Enzyme Absorbance, columns 7-11 [2, 22]: 0.647 and 0.629 and 0.631 and 0.657 and 0.637
Creatininase Enzyme Absorbance, columns 7-11 [2, 23]: 1.062 and 1.055 and 1.027 and 1.067 and 1.069
Creatininase Enzyme Absorbance, columns 7-11 [2, 25]: 0.931 and 0.918 and 0.882 and 0.905 and 0.92
Creatininase Enzyme Absorbance, columns 7-11 [2, 26]: 0.91 and 0.907 and 0.879 and 0.898 and 0.905
Creatininase Enzyme Absorbance, columns 7-11 [2, 27]: 0.745 and 0.73 and 0.711 and 0.727 and 0.732
